Usually IC50 stands for the midpoint of a concentration-inhibition curve. Higher therefore signals weaker potency. The viability is a read-out of living cells in per cent, often relative to untreated cells.

The target of data set [1] is GSK-3β (Homo sapiens (Human), UniProt P49841). The experiment in a line: GSK-3β kinase assay (Millipore IC50Profiler). The format is biochemical. Here is the method:
(§1) GSK-3β, VEGFR-2, FLT-3, Kinase Assays
(§2) The effect of test compounds on the activity of the protein kinases GSK-3β, VEGFR-2 and FLT-3 was evaluated based on half maximal inhibitory concentration (IC50) values determined by Millipore UK Ltd; Gemini Crescent; Dundee Technology Park; Dundee DD2 1SW; UK (IC50Profiler). Detailed protocols can be found at: www.millipore.com/drugdiscovery/dd3/assayprotocols.
(§3) The inhibitory effect of test compounds on protein kinases VEGFR-2, FLT-3 and GSK-3β was investigated using respective kinase inhibition assays (method described above) and the values of half maximal inhibitory concentration (IC50) were determined from the assay results. […] Thus, compounds with selective kinase profiles were identified, which may allow application specific for a certain tumor or condition while showing less side-effects caused by activity against other kinases.

Data set [2] concerns the target FLT-3 (Homo sapiens (Human), UniProt P36888). The experiment in a line: FLT-3 kinase assay (Millipore IC50Profiler). The format is biochemical. Here is the method: as §1, §2, §3
The test system of data set [3] is HT-29 human colon adenocarcinoma cells. Briefly: MTT assay, antiproliferative effect. The note with it: HT-29, 72 h, 3 days, read-out: Viability of HT-29 cells as determined by MTT assay. The data set is classed as cell-based. As to the method:
Evaluation of Antiproliferative Effect (MTT Assay)
The antiproliferative activity of test compounds was determined by the 3-(4,5-dimethylthiazol-2-yl)-2,5-diphenyltetrazolium bromide (MTT) assay as described previously (Mosmann, T. et al. (1983) J. Immunol. Methods 65: 55-63). Cells in the exponential growth phase were transferred to 96-well flat-bottomed plates. 10,000 viable cells contained in 200 μl cell suspension were plated into each well and incubated over night. Cells were then exposed to various concentrations of test compounds (100 μl/well) for 3 days at 37° C. with 5% CO2. Subsequently, 10 μl/well MTT stock solution (5 mg/ml; Biomol, Germany) were added and the cells were incubated at 37° C. with 5% CO2 for 4 hours. 100 μl solubilization solution (10% SDS in 0.01 M HCl) were added and the cells were incubated at 37° C. with 5% CO2 over night. Plates were read on an ELISA-Reader ELX 800 (BIO-TEK Software KC 4) at 562 nm absorbance. Each experiment was done in triplicate.
(§4) Working solutions of 26 mM test compound in DMSO were prepared and stored in aliquots at −20° C. A 29.6 mM stock solution of irinotecan in water was prepared and stored in aliquots at 4° C. The drugs were diluted in culture medium immediately before use to obtain the desired concentrations.
(§5) The human colon cancer cell line HT-29 was obtained from the DSMZ, Germany. […] cells were cultured in RPMI 1640 supplemented with 10% FCS at 37° C. and 5% CO2.
The antitumor activity of test compounds was examined against HT-29 human colon adenocarcinoma cells using MTT assay (method described above).
In general terms: Tetrazolium dyes change colour on reduction, which living cells bring about.

Data set [4] relates to HT-29 cells. The experiment in a line: Nicoletti apoptosis assay by cell cycle analysis (sub-G1 fraction). The format is cell-based, human. The note with it: 7 days. As to the method:
Nicoletti Apoptosis Assay by Cell Cycle Analysis
Cancer cells were transferred to 12-well flat-bottomed plates. 1.5×10^5 viable cells contained in 1 ml cell suspension were plated into each well and incubated over night before exposure with various concentrations of drugs. Subsequently, cells were incubated in 1 ml medium containing various concentrations of test compounds at 37° C. with 5% CO2. After incubation the cells were washed with PBS, trypsinized, pelleted and mixed with PI buffer (containing 0.1% sodium citrate, 0.1% triton X-100, […] propidium iodide (PI)) and incubated for 1 hour at 4° C. Cell cycle sub-G1 fraction analysis was performed as described previously (Nicoletti, I. et al. (1991) J. Immunol. Methods 139: 271-279) using a flow cytometer (BD FACS Calibur™, BD Biosciences, Heidelberg, Germany). Each experiment was done in triplicate.
as §4, §5
Compounds of the invention (test compounds) and the topoisomerase I inhibitor irinotecan were analyzed for their individual and combined effect in apoptosis assay (method described above). Induction of apoptosis was determined by cell cycle analysis (% sub-G1 fraction) after incubating HT-29 cells with test compounds, irinotecan or combinations thereof, respectively, for 7 days.

The target of data set [5] is VEGFR-2 (Homo sapiens (Human), UniProt P35968). Briefly: VEGFR-2 kinase assay (Millipore IC50Profiler). The format is biochemical.
VEGFR-2, sequence (P35968 20-1356): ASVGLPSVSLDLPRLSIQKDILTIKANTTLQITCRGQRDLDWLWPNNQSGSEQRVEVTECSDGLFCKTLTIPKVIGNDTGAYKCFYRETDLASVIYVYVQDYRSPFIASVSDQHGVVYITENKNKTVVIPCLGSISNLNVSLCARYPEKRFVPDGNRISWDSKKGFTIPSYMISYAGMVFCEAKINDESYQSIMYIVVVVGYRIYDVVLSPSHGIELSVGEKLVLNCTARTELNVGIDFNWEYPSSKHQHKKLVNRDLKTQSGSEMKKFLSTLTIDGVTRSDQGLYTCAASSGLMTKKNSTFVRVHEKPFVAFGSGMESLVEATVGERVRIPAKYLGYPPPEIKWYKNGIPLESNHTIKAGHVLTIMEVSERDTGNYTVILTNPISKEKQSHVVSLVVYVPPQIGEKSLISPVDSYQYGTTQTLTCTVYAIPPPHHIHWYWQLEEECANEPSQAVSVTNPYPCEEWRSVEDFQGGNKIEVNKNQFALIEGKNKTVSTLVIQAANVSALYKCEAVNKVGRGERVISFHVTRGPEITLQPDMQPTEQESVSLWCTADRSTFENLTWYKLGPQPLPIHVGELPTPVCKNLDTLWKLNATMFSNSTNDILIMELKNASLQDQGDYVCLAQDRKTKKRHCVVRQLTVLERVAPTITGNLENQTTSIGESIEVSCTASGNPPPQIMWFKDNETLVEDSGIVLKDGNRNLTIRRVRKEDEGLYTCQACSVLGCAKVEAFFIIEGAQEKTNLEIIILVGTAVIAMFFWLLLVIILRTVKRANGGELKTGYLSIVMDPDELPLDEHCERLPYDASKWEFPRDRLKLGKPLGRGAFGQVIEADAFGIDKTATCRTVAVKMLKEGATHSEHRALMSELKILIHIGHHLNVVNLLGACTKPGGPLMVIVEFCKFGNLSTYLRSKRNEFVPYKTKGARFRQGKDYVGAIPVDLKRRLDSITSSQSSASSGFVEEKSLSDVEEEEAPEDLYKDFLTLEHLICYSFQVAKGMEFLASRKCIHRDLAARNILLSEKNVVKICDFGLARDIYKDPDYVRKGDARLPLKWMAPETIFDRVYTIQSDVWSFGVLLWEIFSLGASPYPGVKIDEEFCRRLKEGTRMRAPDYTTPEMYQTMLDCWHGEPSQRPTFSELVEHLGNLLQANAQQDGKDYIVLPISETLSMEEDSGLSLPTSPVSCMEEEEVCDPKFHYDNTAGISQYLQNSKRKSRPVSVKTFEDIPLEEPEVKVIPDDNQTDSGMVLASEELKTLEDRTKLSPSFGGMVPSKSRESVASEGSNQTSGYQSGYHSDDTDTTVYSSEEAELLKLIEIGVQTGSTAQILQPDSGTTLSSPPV
Description: as §1
Detailed protocols can be found at: www.millipore.com/drugdiscovery/dd3/assayprotocols.

The nature of data set [6]: In vitro hepatic microsome stability. The data set is classed as in vitro ADME. The note with it: rat liver microsomes in Tris buffer. Here is the method:
Metabolic conversion was evaluated by incubating compounds of the invention (test compounds) with rat liver microsomes (BD Biosciences) in Tris buffer.
A general note: Liver microsomes are a subcellular fraction often used to study metabolism.

Where [7] appears, read: 8 μM test compound plus 1.18 μM irinotecan.

GSK-3β, sequence (P49841 whole entry): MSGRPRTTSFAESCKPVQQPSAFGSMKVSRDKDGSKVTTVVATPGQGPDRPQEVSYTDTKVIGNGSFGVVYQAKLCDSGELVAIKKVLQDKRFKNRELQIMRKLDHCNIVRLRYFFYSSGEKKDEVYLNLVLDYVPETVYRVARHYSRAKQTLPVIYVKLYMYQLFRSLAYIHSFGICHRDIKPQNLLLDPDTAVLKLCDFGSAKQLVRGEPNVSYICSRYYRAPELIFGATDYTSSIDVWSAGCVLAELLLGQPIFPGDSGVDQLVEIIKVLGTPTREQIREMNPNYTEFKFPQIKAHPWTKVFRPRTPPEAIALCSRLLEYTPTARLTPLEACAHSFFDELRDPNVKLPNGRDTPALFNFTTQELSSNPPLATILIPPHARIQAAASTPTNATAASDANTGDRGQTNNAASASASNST
FLT-3, sequence (P36888 27-993): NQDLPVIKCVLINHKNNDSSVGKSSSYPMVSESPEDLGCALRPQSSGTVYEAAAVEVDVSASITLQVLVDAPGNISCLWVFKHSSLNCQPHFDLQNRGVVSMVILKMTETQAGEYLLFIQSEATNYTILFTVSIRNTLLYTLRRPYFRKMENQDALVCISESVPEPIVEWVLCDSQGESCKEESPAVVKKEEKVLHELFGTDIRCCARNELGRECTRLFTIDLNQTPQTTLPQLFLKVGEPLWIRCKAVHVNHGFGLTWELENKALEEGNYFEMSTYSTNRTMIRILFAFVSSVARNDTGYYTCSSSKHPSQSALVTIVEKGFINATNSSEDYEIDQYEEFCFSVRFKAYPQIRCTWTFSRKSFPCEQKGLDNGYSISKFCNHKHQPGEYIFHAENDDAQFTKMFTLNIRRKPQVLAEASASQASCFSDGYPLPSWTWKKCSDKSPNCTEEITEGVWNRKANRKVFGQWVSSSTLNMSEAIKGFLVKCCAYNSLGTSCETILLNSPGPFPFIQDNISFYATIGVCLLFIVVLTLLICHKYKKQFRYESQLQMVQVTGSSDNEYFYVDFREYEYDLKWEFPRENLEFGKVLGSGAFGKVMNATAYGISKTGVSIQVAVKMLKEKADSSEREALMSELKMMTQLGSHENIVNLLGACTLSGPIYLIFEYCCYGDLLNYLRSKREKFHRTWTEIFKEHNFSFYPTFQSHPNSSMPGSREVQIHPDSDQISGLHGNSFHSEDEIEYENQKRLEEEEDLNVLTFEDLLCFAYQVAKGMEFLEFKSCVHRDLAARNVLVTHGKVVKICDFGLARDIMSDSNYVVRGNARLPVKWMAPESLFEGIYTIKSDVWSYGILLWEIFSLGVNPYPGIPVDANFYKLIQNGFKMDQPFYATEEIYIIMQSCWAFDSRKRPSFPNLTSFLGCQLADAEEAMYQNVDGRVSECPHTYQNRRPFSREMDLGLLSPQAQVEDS

As for `COc1cc(C2=C(c3cn(CCCNC(=O)C(N)CC(C)C)c4ccccc34)C(=O)NC2=O)cc(OC)c1OC` (stereo not shown) [Compound A, 2-Amino-N-(3-(3-(2,5-dioxo-4-(3,4,5-trimethoxyphenyl)-2,5-dihydro-1H-pyrrol-3-yl)-1H-indol-1-yl)propyl)-4-methylpentanamide], the IC50 was 208 nM in data set [1], at least 1000 nM in data set [2] and at least 1000 nM in data set [5]. For the same compound, the viability at 1 µM in data set [3] was determined as 94.9 ± 4.6%. In addition, in data set [3], the viability at 10 µM was determined as 68.7 ± 0.9%. Moreover, the viability at 20 µM in data set [3] is 59.2 ± 5.4%. Moreover, in data set [3], the viability at 50 µM turned out to be 26 ± 8.9%. The “Sub-G1 Fraction” value in data set [4] (8 μM test compound only) amounted to 7.4 ± 0.5%; in data set [4] (setting [7]), 38.9 ± 2.8%.
Consider `COc1cc(C2=C(c3cn(CCCO)c4ccccc34)C(=O)NC2=O)cc(OC)c1OC` [Compound C1, 3-(1-(3-hydroxypropyl)indol-3-yl)-4-(3,4,5-trimethoxyphenyl)-1H-pyrrole-2,5-dione], for which the IC50 in data set [1] worked out at 2250 nM; in data set [2], 556 nM. For the same compound, in data set [6], the “Metabolic conversion (degradation, metabolite formed)” value (shortened to “Metabolic conversion”) is “gave its metabolite Z1”.
On to `COc1cc(C2=C(c3cn(CCCOC(=O)C(N)CC(C)C)c4ccccc34)C(=O)NC2=O)cc(OC)c1OC` (stereo not shown) [Compound C, 3-(3-(2,5-Dioxo-4-(3,4,5-trimethoxyphenyl)-2,5-dihydro-1H-pyrrol-3-yl)-1H-indol-1-yl)propyl 2-amino-4-methylpentanoate], for which the IC50 in data set [1] is 134 nM; in data set [2], 480 nM; in data set [5], at least 1000 nM. Also, the viability at 1 µM in data set [3] was found to be 96.7 ± 3.3%. Also, the viability at 10 µM in data set [3] was 49.3 ± 1.1%. Also, the viability at 20 µM in data set [3] turned out to be 51 ± 2.3%. Moreover, the “Sub-G1 Fraction” value in data set [4] (8 μM test compound only) is recorded as 6.6 ± 0.4%; in data set [4] (setting [7]), 39.2 ± 0.7%. Moreover, the “Metabolic conversion” value in data set [6] is “time dependent degradation”.
For the compound `COc1cc(C2=C(c3cn(CCCO)c4ccccc34)C(=O)NC2=O)cc(OC)c1OC` [Compound D1, 3-(1-(3-hydroxypropyl)indol-3-yl)-4-(3,4,5-trimethoxyphenyl)-1H-pyrrole-2,5-dione], the “Metabolic conversion” value in data set [6] is recorded as “upon further degradation gave compound Z1”.
In the case of `COc1cc(C2=C(c3cn(CCOC(=O)C(N)CC(C)C)c4ccccc34)C(=O)NC2=O)cc(OC)c1OC` (stereo not shown) [Compound D, 2-(3-(2,5-Dioxo-4-(3,4,5-trimethoxyphenyl)-2,5-dihydro-1H-pyrrol-3-yl)-1H-indol-1-yl)ethyl 2-amino-4-methylpentanoate], the midpoint of inhibition in data set [1], the IC50, lay at 12 nM. The same compound had an IC50 in data set [2] of 239 nM. Further, in data set [3], the viability at 1 µM was 104 ± 6.4%, the viability at 10 µM came to 99.4 ± 8.3%, the viability at 20 µM came to 94.5 ± 8.3% and the viability at 50 µM was 65.3 ± 3.3%. In data set [4] (8 μM test compound only), the “Sub-G1 Fraction” value worked out at 6.2 ± 0.8%. Also, the “Sub-G1 Fraction” value in data set [4] (setting [7]) is recorded as 44.5 ± 1.5%. Also, the “Metabolic conversion” value in data set [6] is “yield metabolite D1”. Moreover, 251 nM corresponded to half-maximal inhibition in data set [5] (IC50).
Turning to `COc1cc(C2=C(c3c[nH]c4ccccc34)C(=O)NC2=O)cc(OC)c1OC` [Compound Z1, 3-(1-H-indol-3-yl)-4-(3,4,5-trimethoxyphenyl)-1H-pyrrole-2,5-dione], the IC50 in data set [1] is above 1000 nM; in data set [2], 270 nM; in data set [5], 90 nM. Also, in data set [6], the “Metabolic conversion” value is on record as “metabolized to form metabolite Z2”.
Regarding `CCc1c2c(nc3ccc(OC(=O)N4CCC(N5CCCCC5)CC4)cc13)-c1cc3c(c(=O)n1C2)COC(=O)[C@]3(O)CC` [irinotecan, reference compound], the “Sub-G1 Fraction” value in data set [4] (1.18 μM irinotecan only) is reported as 26.1 ± 2.1%.

The values are drawn from patent publication US8957103B2, “Conjugated 3-(indolyl)- and 3-(azaindolyl)-4-arylmaleimide compounds and their use in tumor treatment” (Johannes Gutenberg—Universitat Mainz, priority 2010, dated 2015).
